The target of assay [1] is T1, human recombinant beta-2 adrenoreceptors (Homo sapiens, UniProt P07550).
T1 construct: expressed in transfected cells; host or cells: CHO cells
Nature of the assay: Functional agonism of human recombinant beta-2 adrenoreceptors expressed in CHO cells (cAMP HTRF). The conditions noted are these: CHO cells expressing human beta-2 adrenoreceptors, cAMP elevation, 30 min. Type of assay: cell-based. In outline: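 CHO cells expressing recombinant receptor incubated with compound for 30 min; intracellular cAMP rise over control read by HTRF. EC50 taken as concentration giving 50% of that compound's own maximal response, with full or partial agonism judged against isoproterenol maximum.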
For orientation: Time-resolved FRET reads energy transfer from a long-lived donor to a nearby acceptor.

Assay [2] deals with LPS-induced TNF-α release from human peripheral blood mononuclear cells (PBMC). Nature of the assay: Inhibition of LPS-induced TNF-α release from human PBMC. The assay is classed as cell-based. The conditions noted are these: LPS 0.4 ng/mL, 6 h, presence or absence of ICI-118551 not given. The essentials: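 Ficoll-purified primary PBMC, 100,000 cells/well, pre-incubated 30 min ± 10 μM ICI-118551 (± gives PDE4-only vs PDE4 plus beta-2 activity), then compound 1 h at 37 °C (0.1% DMSO). Stimulated with 0.4 ng/mL LPS for 6 h; supernatant TNF-α by bead cytokine assay; IC50 from single-site fit.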

Another assay addresses T2, Human recombinant PDE4B2 (Homo sapiens, UniProt Q07343).
T2 construct: purchased BPS Bioscience
The experiment in a line: Inhibition of PDE4B4 enzyme activity (PDE Glo Assay). The assay is classed as biochemical. The conditions noted are these: human recombinant PDE4B2, 50 nM cAMP; read-out: PDE4 IC50. In outline:
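Human recombinant PDE4B2 (0.12 nM) was pre-incubated with compound for 10 min at rt, then 50 nM cAMP was added for 1 hr. After IBMX stop and PKA detection, read-out was Kinase-Glo luminescence. IC50 came from a single-site nonlinear fit of RLU versus concentration.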

Assay [3] deals with T1, human recombinant beta-2 adrenoreceptors. The experiment in a line: Beta-2 adrenoceptor binding assay ([3H](−)CGP-12177 displacement). The conditions noted are these: CHO cells expressing human beta-2 adrenoreceptors, [3H](−)CGP-12177 0.3 nM, 120 min. The essentials:
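Displacement of [3H](−)CGP-12177 (0.3 nM) from human recombinant beta-2 receptors expressed in CHO cells, measured after 120 min incubation with test compound. Bound radioligand counted by scintillation; IC50 taken from concentration-response curves as 50% of each compound's maximal inhibition.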

SMILES strings stand for the structures.

By EC50 is commonly meant the midpoint of the concentration-response curve. Broadly, the IC50 is the concentration that gives 50% inhibition.

T1 sequence (P07550 whole entry): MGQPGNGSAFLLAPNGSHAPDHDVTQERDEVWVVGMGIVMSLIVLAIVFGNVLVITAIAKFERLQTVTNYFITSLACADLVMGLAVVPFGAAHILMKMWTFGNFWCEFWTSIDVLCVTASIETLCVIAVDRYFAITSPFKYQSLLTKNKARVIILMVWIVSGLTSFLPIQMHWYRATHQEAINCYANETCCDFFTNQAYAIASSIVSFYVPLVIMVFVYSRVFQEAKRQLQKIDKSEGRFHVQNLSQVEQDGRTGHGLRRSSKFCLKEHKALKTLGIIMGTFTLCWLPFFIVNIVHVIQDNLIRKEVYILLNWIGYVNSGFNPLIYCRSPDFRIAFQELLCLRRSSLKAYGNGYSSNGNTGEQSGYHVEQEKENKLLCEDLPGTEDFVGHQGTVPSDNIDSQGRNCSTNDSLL
T2 sequence (Q07343 1-564 isoform Q07343-2): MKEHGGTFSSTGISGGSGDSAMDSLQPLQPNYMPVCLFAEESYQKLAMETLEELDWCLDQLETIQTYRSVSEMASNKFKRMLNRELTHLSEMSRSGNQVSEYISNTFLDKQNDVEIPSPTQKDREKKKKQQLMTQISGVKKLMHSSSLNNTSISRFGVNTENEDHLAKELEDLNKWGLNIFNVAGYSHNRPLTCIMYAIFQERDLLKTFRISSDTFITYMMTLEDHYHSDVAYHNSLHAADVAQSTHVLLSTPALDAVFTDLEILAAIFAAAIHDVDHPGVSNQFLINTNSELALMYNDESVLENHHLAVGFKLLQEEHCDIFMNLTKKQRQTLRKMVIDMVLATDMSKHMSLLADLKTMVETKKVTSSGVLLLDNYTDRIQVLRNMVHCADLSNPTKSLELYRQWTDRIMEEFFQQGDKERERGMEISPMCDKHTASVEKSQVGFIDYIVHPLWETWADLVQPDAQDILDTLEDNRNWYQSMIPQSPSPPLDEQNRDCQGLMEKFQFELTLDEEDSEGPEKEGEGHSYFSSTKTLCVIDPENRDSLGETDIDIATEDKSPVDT

Turning to `COc1cccc(Nc2c(C(N)=O)cnc3c(C)cc(S(=O)(=O)c4cccc(C(=O)Nc5ccc(C#CCCCNC[C@H](O)c6ccc(O)c(NC=O)c6)cc5)c4)cc23)c1` [Example 31, (R)-6-[[3-[[4-[5-[[2-(3-Formamido-4-hydroxyphenyl)-2-hydroxyethyl]amino]pent-1-ynyl]phenyl]carbamoyl]phenyl]sulfonyl]-4-[(3-methoxyphenyl)amino]-8-methylquinoline-3-carboxamide], the results for the EC50 in assay [1] and in assay [2] were below 300 nM and below 100 nM, respectively. Moreover, the concentration for half-maximal inhibition (IC50) at Human recombinant PDE4B2 is below 100 nM; in assay [3] it was below 300 nM.

In the case of `COc1cccc(Nc2c(C(N)=O)cnc3c(C)cc(S(=O)(=O)c4cccc(C(=O)Nc5ccc(C#CCCCNC[C@H](O)c6ccc(O)c7c6OCC(=O)N7)cc5)c4)cc23)c1` [Example 32, (R)-6-((3-((4-(5-((2-hydroxy-2-(5-hydroxy-3-oxo-3,4-dihydro-2H-benzo[b][1,4]oxazin-8-yl)ethyl)amino)pent-1-yn-1-yl)phenyl)carbamoyl)phenyl)sulfonyl)-4-((3-methoxyphenyl)amino)-8-methylquinoline-3-carboxamide], the EC50 in assay [1] and in assay [2] was below 100 nM in each case. For the same compound, the IC50 (on Human recombinant PDE4B2; in assay [3]) was below 100 nM each time.

In the case of `COc1cccc(Nc2c(C(N)=O)cnc3c(C)cc(S(=O)(=O)c4cccc(C(=O)N(C)c5ccc(C#CCCCNC[C@H](O)c6ccc(O)c7[nH]c(=O)ccc67)cc5)c4)cc23)c1` [Example 33, (R)-6-((3-((4-(5-((2-hydroxy-2-(8-hydroxy-2-oxo-1,2-dihydroquinolin-5-yl)ethyl)amino)pent-1-yn-1-yl)phenyl)(methyl)carbamoyl)phenyl)sulfonyl)-4-((3-methoxyphenyl)amino)-8-methylquinoline-3-carboxamide], the EC50 in assay [1] and in assay [2] was below 100 nM in each case. In addition, the IC50 (at Human recombinant PDE4B2; in assay [3]) was below 100 nM throughout.

Take `COc1cccc(Nc2c(C(N)=O)cnc3c(C)cc(S(=O)(=O)c4cccc(C(=O)Nc5ccc(C#CCCCNC[C@H](O)c6ccc(O)c7[nH]c(=O)ccc67)cc5C)c4)cc23)c1` [Example 34, (R)-6-((3-((4-(5-((2-hydroxy-2-(8-hydroxy-2-oxo-1,2-dihydroquinolin-5-yl)ethyl)amino)pent-1-yn-1-yl)-2-methylphenyl)carbamoyl)phenyl)sulfonyl)-4-((3-methoxyphenyl)amino)-8-methylquinoline-3-carboxamide]: the EC50 in assay [1] and in assay [2] was below 100 nM each time. The IC50 (on Human recombinant PDE4B2; in assay [3]) was below 100 nM each time.

As for `COc1cccc(Nc2c(C(N)=O)cnc3c(C)cc(S(=O)(=O)c4cccc(C(=O)Nc5ccc(C6(CCCCNC[C@H](O)c7ccc(O)c8[nH]c(=O)ccc78)SCCS6)cc5)c4)cc23)c1` [Example 37, (R)-6-((3-((4-(2-(4-((2-hydroxy-2-(8-hydroxy-2-oxo-1,2-dihydroquinolin-5-yl)ethyl)amino)butyl)-1,3-dithiolan-2-yl)phenyl)carbamoyl)phenyl)sulfonyl)-4-((3-methoxyphenyl)amino)-8-methylquinoline-3-carboxamide], the concentration giving a half-maximal response (EC50) in assay [1] and in assay [2] was below 100 nM in each case. For the same compound, the IC50 (on Human recombinant PDE4B2; in assay [3]) was below 100 nM each time.

Consider `COc1cccc(Nc2c(C(N)=O)cnc3c(C)cc(S(=O)(=O)c4cccc(C(=O)Nc5ccc(CCCCOCCCCCCNC[C@H](O)c6ccc(O)c7[nH]c(=O)ccc67)cc5)c4)cc23)c1` [Example 38, (R)-6-((3-((4-(4-((6-((2-hydroxy-2-(8-hydroxy-2-oxo-1,2-dihydroquinolin-5-yl)ethyl)amino)hexyl)oxy)butyl)phenyl)carbamoyl)phenyl)sulfonyl)-4-((3-methoxyphenyl)amino)-8-methylquinoline-3-carboxamide], for which the EC50 in assay [1] and in assay [2] was below 100 nM throughout. Further, the IC50 (on Human recombinant PDE4B2; in assay [3]) was below 100 nM in each case.

As for `COc1cccc(Nc2c(C(N)=O)cnc3c(C)cc(S(=O)(=O)c4cccc(C(=O)Nc5ccc(CCOCCCCCCNC[C@H](O)c6ccc(O)c7[nH]c(=O)ccc67)cc5)c4)cc23)c1` [Example 39, (R)-6-((3-((4-(2-((6-((2-hydroxy-2-(8-hydroxy-2-oxo-1,2-dihydroquinolin-5-yl)ethyl)amino)hexyl)oxy)ethyl)phenyl)carbamoyl)phenyl)sulfonyl)-4-((3-methoxyphenyl)amino)-8-methylquinoline-3-carboxamide], the EC50 in assay [1] and in assay [2] was below 100 nM in each case. The half-inhibitory concentration (IC50) (at Human recombinant PDE4B2; in assay [3]) was below 100 nM throughout.

Turning to `COc1cccc(Nc2c(C(N)=O)cnc3c(C)cc(S(=O)(=O)c4cccc(C(=O)NCCCCCCNC[C@H](O)c5ccc(O)c(CO)c5)c4)cc23)c1` [Example 41, (R)-6-[[3-[[6-[[2-Hydroxy-2-[4-hydroxy-3-(hydroxymethyl)phenyl]ethyl]amino]hexyl]carbamoyl]phenyl]sulfonyl]-4-[(3-methoxyphenyl)amino]-8-methylquinoline-3-carboxamide], the EC50 in assay [1] and in assay [2] was below 100 nM throughout. The IC50 (on Human recombinant PDE4B2; in assay [3]) was below 100 nM each time.

Consider `COc1cccc(Nc2c(C(N)=O)cnc3c(C)cc(S(=O)(=O)c4cccc(C(=O)NCCCCCCNC[C@H](O)c5ccc(O)c(NS(C)(=O)=O)c5)c4)cc23)c1` [Example 43, (R)-6-[[3-[[6-[[2-Hydroxy-2-[4-hydroxy-3-(methylsulfonamido)phenyl]ethyl]amino]hexyl]carbamoyl]phenyl]sulfonyl]-4-[(3-methoxyphenyl)amino]-8-methylquinoline-3-carboxamide], for which the EC50 in assay [1] and in assay [2] was below 100 nM in each case. Further, the IC50 (at Human recombinant PDE4B2; in assay [3]) was below 100 nM throughout.

Consider `COc1cccc(Nc2c(C(N)=O)cnc3c(C)cc(S(=O)(=O)c4cccc(C(=O)N(C)CCCCCCNC[C@H](O)c5ccc(O)c(CO)c5)c4)cc23)c1` [Example 44, (R)-6-[[3-[[6-[[2-Hydroxy-2-(4-hydroxy-3-(hydroxymethyl]phenyl]ethyl]amino)hexyl](methyl)carbamoyl]phenyl]sulfonyl]-4-[(3-methoxyphenyl)amino]-8-methylquinoline-3-carboxamide], for which the EC50 in assay [1] was above 300 nM; in assay [2], below 100 nM. For the same compound, the IC50 at Human recombinant PDE4B2 is below 100 nM; in assay [3], above 300 nM.

As to `COc1cccc(Nc2c(C(N)=O)cnc3c(C)cc(S(=O)(=O)CCCCCCCCCCCNC[C@H](O)c4ccc(O)c5[nH]c(=O)ccc45)cc23)c1` [Example 45, (R)-6-((11-((2-hydroxy-2-(8-hydroxy-2-oxo-1,2-dihydroquinolin-5-yl)ethyl)amino)undecyl)sulfonyl)-4-((3-methoxyphenyl)amino)-8-methylquinoline-3-carboxamide], the EC50 in assay [1] and in assay [2] was below 100 nM throughout. Besides, the IC50 (at Human recombinant PDE4B2; in assay [3]) was below 100 nM each time.

Regarding `COc1cccc(Nc2c(C(N)=O)cnc3c(C)cc(S(=O)(=O)CCCCCCCCCCCNC[C@H](O)c4cc(O)cc5c4OCC(=O)N5)cc23)c1` [Example 46, (R)-6-((11-((2-hydroxy-2-(6-hydroxy-3-oxo-3,4-dihydro-2H-benzo[b][1,4]oxazin-8-yl)ethyl)amino)undecyl)sulfonyl)-4-((3-methoxyphenyl)amino)-8-methylquinoline-3-carboxamide], the EC50 is below 300 nM in assay [1] and below 100 nM in assay [2]. Moreover, the IC50 (at Human recombinant PDE4B2; in assay [3]) was below 100 nM in each case.

Consider `COc1cccc(Nc2c(C(N)=O)cnc3c(C)cc(S(=O)(=O)c4cccc(-c5ccc(CNC[C@H](O)c6ccc(O)c7[nH]c(=O)ccc67)cc5)c4)cc23)c1` [Example 47, (R)-6-((4′-(((2-hydroxy-2-(8-hydroxy-2-oxo-1,2-dihydroquinolin-5-yl)ethyl)amino)methyl)-[1,1′-biphenyl]-3-yl)sulfonyl)-4-((3-methoxyphenyl)amino)-8-methylquinoline-3-carboxamide], for which the values for the EC50 in assay [1] and in assay [2] were above 300 nM and below 100 nM, respectively. The values for the IC50 (on Human recombinant PDE4B2; in assay [3]) were below 100 nM and above 300 nM, respectively.

For the compound `COc1cccc(Nc2c(C(N)=O)cnc3c(C)cc(S(=O)(=O)c4ccc(-c5ccc(CNC[C@H](O)c6ccc(O)c7[nH]c(=O)ccc67)cc5)cc4)cc23)c1` [Example 48, (R)-6-((4′-(((2-hydroxy-2-(8-hydroxy-2-oxo-1,2-dihydroquinolin-5-yl)ethyl)amino)methyl)-[1,1′-biphenyl]-4-yl)sulfonyl)-4-((3-methoxyphenyl)amino)-8-methylquinoline-3-carboxamide], the EC50 in assay [1] and in assay [2] was below 100 nM each time. For the same compound, the 50% inhibitory concentration (IC50) (on Human recombinant PDE4B2; in assay [3]) was below 100 nM each time.
